Measurements: patent publication US20240377404A1, “BIOLUMINESCENCE-TRIGGERED PHOTOCATALYTIC ACTIVATION” (Promega Corporation, priority 2023, published 2024)

Assays:
[1] = test system: HeLa cells expressing the HT178-cpNLuc-179 chimera; assay: Bioluminescence-triggered uncaging of azido-quenched fluorophores inside cells; type: cell-based; settings: 2-20 μM fluorophore, 20 μM fluorofurimazine 45 minutes, with/without Ir-9049 or Ru-8974 (3 μM)
Procedure: Structure of exemplary azido quenched fluorophores and a cartoon depicting bioluminescent-triggered fluorescence turn-on are included in FIG. 9. Briefly, upon absorbance of light, the excited catalyst engages in energy transfer events with the azido-quenched fluorophore to generate a nitrene through elimination of an N2 group, which restore the fluorophore's fluorescence. HeLa cells were transfected with a DNA construct encoding HT178-cpNLuc-179 that was diluted 50-fold into promoterless carrier DNA, plated in flasks at 2×10^5 cell/mL, and incubated 16-18 hours at 37° C., 5% CO2. The next day, cells were collated, replated in 24-well plates at 2×10^5 cell/mL, and incubated overnight at 37° C., 5% CO2. […] Cells were then washed twice, 15 minutes each, in HBSS buffer to remove excess unreacted catalyst or chloroalkane-biotin.

NanoLuc (Nluc) enzyme = assay: Bioluminescence-triggered release of serotonin from caging Ru complex; type: biochemical; settings: 200 μM RuBi5, 6 nM NanoLuc, 5 μM fluorofurimazine, 40 minutes
Procedure: As depicted in FIG. 16A, the amino-signaling molecule serotonin is caged through a coordination reaction with the [Ru^2+(bpy)2]2 core. Upon absorbance of light, the excited ruthenium catalyst induces an oxidation-driven release of serotonin while a water molecule occupies the vacant coordination site.
Here, 6 nM NanoLuc (Nluc) enzyme and 5 μM fluorofurimazine, in the presence and absences of 200 μM RuBi5 (Abcam), were incubated in a white plate for 40 minutes. Reactions were then transferred to a black plate, and 200 μM RuBi5 (caged) added to the control wells.

[2] = test system: Firefly (FFLY) luciferase; assay: Bioluminescence-triggered uncaging of o-nitrobenzyl-F-luciferin, FFLY luminescence readout; type: biochemical
Procedure: (§1) As depicted in FIG. 18A, bioluminescence-triggered ruthenium-catalyzed excitation of o-nitrobenzyl-caged F-luciferin to liberate F-luciferin, which is then available as a substrate for FFLY luciferase. Synthesis of o-nitrobenzyl-caged F-luciferin is provided in Example 11. […] Residual NanoLuc bioluminescence signal was quenched by treatment with 10 mM competitive extracellular NanoLuc inhibitor before subsequent 5-fold dilution into FFLY detection plate comprising FFLY luciferase, ATP, and Bright-Glo buffer. Bioluminescence was measured before and after dilution into the FFLY detection plate.

[3] = test system: Firefly (FFLY) luciferase; assay: Bioluminescence-triggered uncaging of p-azidobenzyl-luciferin, FFLY luminescence readout; type: biochemical
Procedure: as §1, with “FIG. 17A,” for “FIG. 18A,”, “ruthenium-catalyzed reduction” for “ruthenium-catalyzed excitation”, “of p-azidobenzyl-caged luciferin” for “of o-nitrobenzyl-caged F-luciferin”, “liberate luciferin,” for “liberate F-luciferin,”, “as” for “as a”, “for Firefly (FFLY)” for “for FFLY”

[4] = 60 nM HT178-cpNLuc-179 tethered/untethered to Ru-8974, 0-10 μM, with/without 20 μM fluorofurimazine, 45 minutes
[5] = fold increase in FFLY luminescence

CCN(CC)c1ccc2c(C)c(N=[N+]=N)c(=O)oc2c1 [PBI-8977]
fluorescence turn-on upon uncaging [1]: pronounced catalyst dependent increase in fluorescence

[Ru(bpy)2(PMe3)(5HT)]^2+ [RuBi5]
serotonin emission after bioluminescence exposure (NanoLuc (Nluc) enzyme): bioluminescence-dependent increase in the 340 nm peak emission for serotonin

CC[n+]1c(-c2ccccc2)c2cc(N=[N+]=[N-])ccc2c2ccc(N)cc21.[Br-] [EMA, Ethidium Monoazide Bromide, reference compound]
fluorescence turn-on upon uncaging [1]: pronounced catalyst dependent increase in fluorescence

O=C(O)[C@H]1CSC(c2nc3cc(F)c(OCc4ccc([N+](=O)[O-])cc4)cc3s2)=N1 [o-nitrobenzyl-F-luciferin, (S)-2-(5-fluoro-6-((4-nitrobenzyl)oxy)benzo[d]thiazol-2-yl)-4,5-dihydrothiazole-4-carboxylic acid]
FFLY luminescence after uncaging [2, 4]: Bioluminescence and Ru-dependent increase in FFLY dependent bioluminescence
uncaging efficiency, bioluminescence versus LED [2, 5]: higher efficiency for bioluminescence-driven uncaging compared to LED

[N-]=[N+]=Nc1ccc(COc2ccc3nc(C4=N[C@@H](C(=O)O)CS4)sc3c2)cc1 [p-azidobenzyl-luciferin, (S)-2-(6-((4-azidobenzyl)oxy)benzo[d]thiazol-2-yl)-4,5-dihydrothiazole-4-carboxylic acid]
FFLY luminescence after uncaging [3, 4]: Bioluminescence and Ru-dependent increase in FFLY dependent bioluminescence
uncaging efficiency, bioluminescence versus LED [3, 5]: higher efficiency for bioluminescence-driven uncaging compared to LED
